Assay [1] concerns adult human OPCs. The assay can be described thus: Differentiation assay, adult human OPCs. It counts as cell-based. The method, then: Human brain samples were obtained from adult patients of temporal lobe epilepsy resistant to pharmacological treatment or traumatic brain injury; they underwent surgical treatment by the Neurosurgery Service at the Hospital Universitario de La Princesa (Madrid, Spain) and Hospital 12 de Octubre (Madrid, Spain). All tissue samples were obtained under protocols approved by the Research Ethics Committee of Toledo (Spain) review boards. All were conducted in accordance with the Helsinki Declaration and were approved by the Research Ethics Committee of Toledo (Spain). All patients provided informed consent prepared under the guidelines of the Research Ethics Committee at their respective hospital in Madrid (Spain).
For cells obtained from human biopsies, the same protocol was used except that papain solution was used 1:2.5 in HBSS for 10 minutes for meningeal disintegration and 1:10 in HBSS for 15 minutes for the tissue digestion, 25 cm[2] flasks were used, the medium was supplemented with 10 ng/ml of human PDGF-AA (Millipore) for 2 weeks and then incubated for 2 more weeks without growth factors before shaking and the shaking was carried out at 230 rpm instead of 250 rpm.
(§1) Purified OPCs were placed on coverslips coated with poly-L-lysine and laminin in 24-well tissue culture dishes at a density of 2 × 10^4 cells/well. To promote differentiation, the cells were maintained in the differentiation medium (described above) and PDE7-GSK3 or GSK3 inhibitors (VP3.15 or TDZD8; 1 μM) were added to the culture medium. Different controls were used for the dual or single inhibitors due to the active substance being dissolved in differing amounts of DMSO. After 5, 7 and 10 DIV the cells were fixed with 4% PFA for further immunocytochemical analysis. Anti-CNPase antibodies (1:200;Covance; Cat#SMI-91R), anti-MBP antibodies (1:200; Serotec; Cat#MCA4095) for detecting oligodendrocytes and anti-Olig2 antibodies (1:250; Millipore; Cat#AB9610) as a marker for all oligodendroglial stages were used. Ten random fluorescence digital images were taken in each coverslip with a DFC480 FX digital camera (Leica) coupled to a Leica DM5000 B microscope for quantification. Data were expressed as a mean ratio of differentiated oligodendrocytes (CNPase^+-Olig2^+ double positive cells) with respect to total Olig2^+ cells ± SEM or percentage of CNPase^+ cells respect to control ± SEM, in at least three independent experiments, except with human samples (two independent experiments).

Assay [2] deals with OPCs isolated from P0 mice. The experiment in a line: Differentiation assay, murine OPCs. It counts as cell-based, mouse. The method, then: (§2) We isolated OPCs, as previously described. Briefly, a stock papain solution was prepared containing ([…]; Worthington Biochemical), L-cysteine (0.2 mg/ml; Sigma), and EDTA (0.2 mg/ml; Sigma) in Hank’s Balanced Salt Solution (HBSS; Invitrogen) without Ca^2+ and Mg[2]. Then, the cerebral cortices of P0 CD1 mice were dissected out and placed for 5 minutes at 37 °C in a medium containing the stock papain solution in HBSS with Ca^2+ and Mg^2+ (1:10; Invitrogen) in order to easily remove the meninges. Once meninges and choroid plexus were removed, the tissue was enzymatically dissociated for 5 minutes at 37 °C again by using the papain solution (1:10 in HBSS without Ca^2+ and Mg^2+) and the digested tissue was then filtered through a 100 μm nylon mesh strainer (BD Biosciences) and seeded on poly-L-ornithine-coated (Sigma) 75 cm^2 flasks in DMEM medium (Invitrogen) containing 10% foetal bovine serum (FBS; BioWhittaker) and 100 U/mL penicillin, 0.1 mg/mL streptomycin and 0.25 μg/ml Amphotericin B antibiotic antimycotic solution (Sigma). Cultures were maintained at 37 °C and 5% CO2, and the medium was changed every 3 days. When the cultures reached confluence, they were shaken overnight at 250 rpm and at 37 °C in order to detach the OPCs located on the top of the confluent astrocyte monolayer and the medium was then filtered through a 40μm nylon mesh strainer (BDBiosciences) and centrifuged at 900 rpm. Cells were seeded twice (45 minutes each) in bacterial grade Petri dishes (Sterilin) to remove microglial cells. The resulting enriched oligodendrocyte progenitor cell suspension was counted and seeded.
as §1

The subject of assay [3] is GSK-3. Set-up: method as in PMID 24437940. Particulars: read-out: GSK-3 inhibition IC50; cited from earlier work.
Assay [4] has as its system OPCs from P0 mice. The experiment in a line: Proliferation assay (BrdU incorporation). It counts as cell-based, mouse. The note with it: murine P0 OPCs, 1 μM, 72 h. The method, then: We isolated OPCs, as previously described. Briefly, a stock papain solution was prepared containing ([…]; Worthington Biochemical), L-cysteine (0.2 mg/ml; Sigma), and EDTA (0.2 mg/ml; Sigma) in Hank’s Balanced Salt Solution (HBSS; Invitrogen) without Ca^2+ and Mg[2]. Then, the cerebral cortices of P0 CD1 mice were dissected out and placed for 5 minutes at 37 °C in a medium containing the stock papain solution in HBSS with Ca^2+ and Mg^2+ (1:10; Invitrogen) in order to easily remove the meninges. […] The resulting enriched oligodendrocyte progenitor cell suspension was counted and seeded.
OPCs were placed on coverslips coated with poly-L-lysine (Sigma) and laminin (Sigma; 2 × 10^4 cells/well) and they were incubated with the inhibitors (VP3.15 or TDZD8; 1 μM) in the serum free medium described above. After 42 h in culture, BrdU (50 μM; Sigma) was added for 6 h and after a total of 72 h in culture, the cells were fixed and BrdU incorporation was detected by immunocytochemistry (1:20; G3G4, HybridomaBank) combined with the detection of the oligodendroglial marker Olig2 (1:250; Millipore; Cat#AB9610). […]

Assay [5] has as its system OPCs from P0 mice. The experiment in a line: Survival assay (Casp3+-A2B5+ cells). It counts as cell-based, mouse. Particulars: murine P0 OPCs, 1 μM, 2 DIV. The method, then:
as §2, with “When the cultures reached confluence, they were shaken overnight at 250 rpm and at 37 °C in order to detach the OPCs located on the top of the confluent astrocyte monolayer and the medium was then filtered through a 40μm nylon mesh strainer (BDBiosciences) and centrifuged at 900 rpm. Cells were seeded twice (45 minutes each) in bacterial grade Petri dishes (Sterilin) to remove microglial cells.” left out, “seeded. […]” for “seeded.”

The mark [6] stands for this setting: murine P0 OPCs, 1 μM, 5, 7 and 10 DIV.

Molecules are shown by their SMILES.

One may read the IC50 as the point on the concentration scale where inhibition reaches its midpoint. On to `c1ccc(-c2n/c(=N/CCN3CCOCC3)sn2-c2ccccc2)cc1` [VP3.15], for which the “number of CNPase+-Olig2+ cells vs control (differentiation)” value in assay [1] (adult human OPCs, 1 μM, 5 DIV) is given as “significantly increased”. The “number of primary cytoplasmic processes” value in assay [1] (adult human oligodendrocytes, control 2.9 ± 0.21, p = 0.72) is 2.75 ± 0.20; in assay [2] (murine mature oligodendrocytes, control 4.9 ± 0.35, p = 0.64) it was 4.7 ± 0.31. For the same compound, the “number of cytoplasmic subprocesses” value in assay [1] (adult human oligodendrocytes, control 4.3 ± 0.2, p = 0.83) is 4.8 ± 0.43; in assay [2] (murine mature oligodendrocytes, control 8.588 ± 0.875, p = 0.62) it was 8.111 ± 0.970. In addition, in assay [2] (setting [6]), the “number of mature oligodendrocytes (CNPase+-Olig2+ cells) vs control” value is “significant increase”. For the same compound, the “number of mature oligodendrocytes (MBP+-Olig2+ cells) vs control” value in assay [2] (setting [6]) was “significant increase”. For the same compound, the IC50 in assay [3] was 880 nM. For the same compound, in assay [4], the “OPC proliferation (BrdU+-Olig2+ cells)” value was “no changes”. In addition, the “OPC survival (Casp3+-A2B5+ apoptotic cells)” value in assay [5] is “without affecting”.
